Measurements reported in patent US20210330611A1, “THERAPY FOR NEUROLOGICAL DISEASES/DISORDERS” (priority 2020, published 2021).
Counter-ions that a name gives are not always drawn. Like-named read-outs stand apart in the source and are kept apart here.

How the values were obtained:
[1] = test system: primary rat microglia;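 for Fibrin % cell toxicity: share of dead cells sized under 150 µm2 at 10 µM in fibrin-stimulated microglia HTS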
[2] = test system: LPS-induced microglia activation; experiment: Image-based assay of LPS-induced microglia activation (HTS and dose response); type: cell-based, rat
[3] = test system: fibrin- and LPS-induced microglia activation; experiment: cells; type: cell-based, rat
[4] = test system: fibrin-induced microglia activation; experiment: Image-based assay of fibrin-induced microglia activation (HTS and dose response); type: cell-based, rat; conditions: for inhibition at 10 µM: Rattus norvegicus, Microglia, read-out: Fibrin % inhibition
[5] = test system: primary rat microglia; remark: listed apart in the source;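 for Fibrin % cell toxicity: share of dead cells sized under 150 µm2 at 10 µM in fibrin-stimulated microglia HTS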
[6] = Rattus norvegicus, Microglia, 48 h, primary microglia HTS, LPS stimulation; increased cell size (>800 μm^2) as marker of activation; read-out: LPS % inhibition
[7] = quadrant by fibrin and LPS inhibition in HTS of 1907 compounds
[8] = primary microglia HTS, fibrin stimulation, increased cell size (>800 μm^2) as marker of activation
[9] = Rattus norvegicus, Microglia, 48 h; read-out: LPS % inhibition
[10] = classification by fibrin and LPS inhibition in HTS
[11] = primary microglia HTS, fibrin stimulation, cell size >800 μm2 as marker of activation
[12] = Rattus norvegicus, Microglia, read-out: LPS % inhibition
[13] = Rattus norvegicus, Microglia, 48 h, read-out: LPS % inhibition
[14] = Rattus norvegicus, Microglia, primary HTS, 10 μM, LPS-stimulated primary microglia; read-out: LPS % inhibition
[15] = primary HTS, 10 μM, fibrin-stimulated primary microglia
[16] = Rattus norvegicus, Microglia, primary microglia HTS, 10 μM, LPS-stimulated, cell size >800 μm^2 as marker of activation; read-out: LPS % inhibition
[17] = HTS of 1907 compounds, quadrant by fibrin and LPS inhibition
[18] = primary microglia HTS, 10 μM, fibrin-stimulated, cell size >800 μm^2 as marker of activation
[19] = primary microglia HTS, LPS stimulation, compounds at 10 μM
[20] = classification by fibrin and LPS inhibition, HTS at 10 μM
[21] = primary microglia HTS, fibrin stimulation, compounds at 10 μM
[22] = Rattus norvegicus, Microglia, 48 h, primary microglia HTS, LPS stimulation, activation = cell size >800 μm2; read-out: LPS % inhibition
[23] = primary microglia HTS, fibrin stimulation, activation = cell size >800 μm2

Cc1ccccc1OCC(O)CO (stereo not drawn) [Mephenesin]
LPS % cell toxicity ([1]; rat): 0% | inhibition at 10 µM [2, 6]: 13% | Quadrant (FIG. 5b) [3, 7]: Q4 | inhibition at 10 µM [4, 8]: 14% | Fibrin % cell toxicity ([5]; rat): 0%

CC(C)(C)NC[C@H](O)COc1ccccc1C1CCCC1 [Penbutolol]
LPS % cell toxicity ([1]; rat): 0% | inhibition at 10 µM [2, 9]: 17% | Quadrant (FIG. 5b) [3, 10]: Q4 | inhibition at 10 µM [4, 11]: -8% | Fibrin % cell toxicity ([5]; rat): 1%

NC[C@@H]1CC[C@@H](N)[C@@H](O[C@H]2[C@H](O)[C@@H](O[C@H]3O[C@H](CO)[C@@H](O)[C@H](N)[C@H]3O)[C@H](N)C[C@@H]2N)O1 [Dibekacin]
LPS % cell toxicity ([1]; rat): 1% | inhibition at 10 µM [2, 12]: 20% | Quadrant (FIG. 5b) [3]: Q4 | inhibition at 10 µM [4]: 10% | Fibrin % cell toxicity ([5]; rat): 1%

Nc1c2c(nc3ccccc13)CCCC2 [Tacrine]
LPS % cell toxicity ([1]; rat): 0% | inhibition at 10 µM [2, 12]: 5% | Quadrant (FIG. 5b) [3]: Q4 | inhibition at 10 µM [4]: -2% | Fibrin % cell toxicity ([5]; rat): 1%

CN(C)c1ccc(C(=C2C=CC(=[N+](C)C)C=C2)c2ccc(N(C)C)cc2)cc1 [Gentian Violet]
LPS % cell toxicity ([1]; rat): 73% | inhibition at 10 µM [2, 6]: 118% | Quadrant (FIG. 5b) [3, 7]: Q2 | inhibition at 10 µM [4, 8]: 117% | Fibrin % cell toxicity ([5]; rat): 38%

O=c1[nH]c(=O)n(Cl)c(=O)n1Cl [Troclosene Potassium]
LPS % cell toxicity ([1]; rat): 0% | inhibition at 10 µM [2, 12]: 1% | Quadrant (FIG. 5b) [3]: Q4 | inhibition at 10 µM [4]: -8% | Fibrin % cell toxicity ([5]; rat): 1%

Cc1[nH]c(=O)c(C#N)cc1-c1ccncc1 [Milrinone]
LPS % cell toxicity ([1]; rat): 0% | inhibition at 10 µM [2, 6]: 23% | Quadrant (FIG. 5b) [3, 7]: Q4 | inhibition at 10 µM [4, 8]: 4% | Fibrin % cell toxicity ([5]; rat): 0%

CC(CCc1ccccc1)NCC(O)c1ccc(O)c(C(N)=O)c1 (stereo not drawn) [Labetalol]
LPS % cell toxicity ([1]; rat): 1% | inhibition at 10 µM [2, 13]: 30% | Quadrant (FIG. 5b) [3]: Q4 | inhibition at 10 µM [4]: 32% | Fibrin % cell toxicity ([5]; rat): 1%

CNC(=O)c1cc(Oc2ccc(NC(=O)Nc3ccc(Cl)c(C(F)(F)F)c3)cc2)ccn1 [Sorafenib]
LPS % cell toxicity ([1]; rat): 1% | inhibition at 10 µM [2, 9]: 35% | Quadrant (FIG. 5b) [3, 10]: Q4 | inhibition at 10 µM [4, 11]: -67% | Fibrin % cell toxicity ([5]; rat): 1%

Oc1ccc(Cl)cc1 [Parachlorophenol]
LPS % cell toxicity ([1]; rat): 0% | inhibition at 10 µM [2, 13]: 15% | Quadrant (FIG. 5b) [3]: Q4 | inhibition at 10 µM [4]: 21% | Fibrin % cell toxicity ([5]; rat): 0%

CCCCCOC(=O)Nc1nc(=O)n([C@@H]2O[C@H](C)[C@@H](O)[C@H]2O)cc1F [Capecitabine]
LPS % cell toxicity ([1]; rat): 1% | inhibition at 10 µM [2, 14]: 25% | Quadrant (FIG. 5b) ([3]; primary HTS, 10 μM): Q4 | inhibition at 10 µM [4, 15]: 43% | Fibrin % cell toxicity ([5]; rat): 1%

C[N+](C)(C)CCOP(=O)(O)OP(=O)([O-])OC[C@H]1O[C@@H](n2ccc(N)nc2=O)[C@H](O)[C@@H]1O [Citicoline]
LPS % cell toxicity ([1]; rat): 0% | inhibition at 10 µM [2, 14]: 16% | Quadrant (FIG. 5b) ([3]; primary HTS, 10 μM): Q4 | inhibition at 10 µM [4, 15]: 5% | Fibrin % cell toxicity ([5]; rat): 1%

O=C(O)c1cc(=O)[nH]c(=O)[nH]1 [Orotic Acid]
LPS % cell toxicity ([1]; rat): 0% | inhibition at 10 µM [2, 6]: 16% | Quadrant (FIG. 5b) [3, 7]: Q4 | inhibition at 10 µM [4, 8]: -5% | Fibrin % cell toxicity ([5]; rat): 0%

CC(=O)Nc1nnc(S(N)(=O)=O)s1 [Acetazolamide]
LPS % cell toxicity ([1]; rat): 1% | inhibition at 10 µM [2, 12]: 4% | Quadrant (FIG. 5b) [3]: Q4 | inhibition at 10 µM [4]: -12% | Fibrin % cell toxicity ([5]; rat): 0%

O=S(=O)(O)NC1CCCCC1 [Cyclamic Acid]
LPS % cell toxicity ([1]; rat): 0% | inhibition at 10 µM [2, 12]: 13% | Quadrant (FIG. 5b) [3]: Q4 | inhibition at 10 µM [4]: 4% | Fibrin % cell toxicity ([5]; rat): 0%

OC[C@@H](O)[C@H]1O[C@@H]2O[C@H](C(Cl)(Cl)Cl)O[C@@H]2[C@H]1O [Chloralose]
LPS % cell toxicity ([1]; rat): 0% | inhibition at 10 µM [2, 12]: 9% | Quadrant (FIG. 5b) [3]: Q4 | inhibition at 10 µM [4]: -14% | Fibrin % cell toxicity ([5]; rat): 1%

[H]/N=C(/N)N[C@H]1[C@H](O)[C@@H](O)[C@H](O[C@@H]2O[C@@H](C)[C@](O)(C=O)[C@H]2O[C@@H]2O[C@@H](CO)[C@H](O)[C@@H](O)[C@@H]2NC)[C@@H](N/C(N)=N\[H])[C@@H]1O [Streptomycin Sulfate]
LPS % cell toxicity ([1]; rat): 0% | inhibition at 10 µM [2, 16]: 13% | Quadrant (FIG. 5b) [3, 17]: Q4 | inhibition at 10 µM [4, 18]: -46% | Fibrin % cell toxicity ([5]; rat): 0%

O.OC[C@@H](O)[C@@H](O[C@@H]1O[C@H](CO)[C@H](O)[C@H](O)[C@H]1O)[C@H](O)[C@@H](O)CO [D-lactitol Monohydrate]
LPS % cell toxicity [1]: 0% | LPS % inhibition [2, 19]: 16% | Quadrant (FIG. 5b) [3, 20]: Q4 | Fibrin % inhibition [4, 21]: 11% | Fibrin % cell toxicity [5]: 1%

[H-].[Li+] [Lithium hydride]
LPS % cell toxicity [1]: 0% | LPS % inhibition [2]: 20% | Quadrant (FIG. 5b) [3]: Q4 | Fibrin % inhibition [4]: −6% | Fibrin % cell toxicity [5]: 1%

CC(C)NCC(O)c1ccc(O)c(O)c1 (stereo not drawn) [Isoprenaline]
LPS % cell toxicity ([1]; rat): 0% | inhibition at 10 µM [2, 22]: 37% | Quadrant (FIG. 5b) [3, 7]: Q4 | inhibition at 10 µM [4, 23]: 29% | Fibrin % cell toxicity ([5]; rat): 0%

CCN(CC)CCOCCOC(=O)C1(c2ccccc2)CCCC1 [Carbetapentane Citrate]
LPS % cell toxicity ([1]; rat): 0% | inhibition at 10 µM [2, 14]: 7% | Quadrant (FIG. 5b) ([3]; primary HTS, 10 μM): Q4 | inhibition at 10 µM [4, 15]: -13% | Fibrin % cell toxicity ([5]; rat): 1%

O=C1CC2(CCCC2)CC(=O)N1CCCCN1CCN(c2ncccn2)CC1 [Buspirone]
LPS % cell toxicity ([1]; rat): 0% | inhibition at 10 µM [2, 12]: 8% | Quadrant (FIG. 5b) [3]: Q4 | inhibition at 10 µM [4]: -13% | Fibrin % cell toxicity ([5]; rat): 0%

COc1cc(NS(C)(=O)=O)ccc1Nc1c2ccccc2nc2ccccc12 [Amsacrine]
LPS % cell toxicity ([1]; rat): 54% | inhibition at 10 µM [2, 6]: 120% | Quadrant (FIG. 5b) [3, 7]: Q2 | inhibition at 10 µM [4, 8]: 70% | Fibrin % cell toxicity ([5]; rat): 3%

CN(C)CCC=C1c2ccccc2CCc2ccccc21 [Amitriptyline]
LPS % cell toxicity ([1]; rat): 1% | inhibition at 10 µM [2, 12]: 30% | Quadrant (FIG. 5b) [3]: Q4 | inhibition at 10 µM [4]: 14% | Fibrin % cell toxicity ([5]; rat): 1%

O=C(O)/C=C/C(=O)O [Fumaric Acid]
LPS % cell toxicity ([1]; rat): 0% | inhibition at 10 µM [2, 13]: 17% | Quadrant (FIG. 5b) [3]: Q4 | inhibition at 10 µM [4]: 19% | Fibrin % cell toxicity ([5]; rat): 1%

Cc1ccc(C(=O)c2cc(O)c(O)c([N+](=O)[O-])c2)cc1 [Tolcapone]
LPS % cell toxicity ([1]; rat): 0% | inhibition at 10 µM [2, 16]: 9% | Quadrant (FIG. 5b) [3, 17]: Q4 | inhibition at 10 µM [4, 18]: -43% | Fibrin % cell toxicity ([5]; rat): 1%

C#Cc1cccc(Nc2ncnc3cc(OCCOC)c(OCCOC)cc23)c1 [Erlotinib]
LPS % cell toxicity ([1]; rat): 0% | inhibition at 10 µM ([2]; Rattus norvegicus, Microglia, primary microglia HTS, LPS stimulation, compounds at 10 μM; read-out: LPS % inhibition): -8% | Quadrant (FIG. 5b) [3, 20]: Q4 | inhibition at 10 µM [4, 21]: -52% | Fibrin % cell toxicity ([5]; rat): 1%

CN(CCOc1ccc(CC2SC(=O)NC2=O)cc1)c1ccccn1 (stereo not drawn) [Rosiglitazone, Rosiglitazone Maleate]
LPS % cell toxicity [1]: 1% | LPS % inhibition [2]: 20% | Quadrant (FIG. 5b) [3]: Q4 | Fibrin % inhibition [4]: 5% | Fibrin % cell toxicity [5]: 1%

N#Cc1ccc(C(c2ccc(C#N)cc2)n2cncn2)cc1 [Letrozole]
LPS % cell toxicity ([1]; rat): 0% | inhibition at 10 µM [2, 22]: 16% | Quadrant (FIG. 5b) [3, 7]: Q4 | inhibition at 10 µM [4, 23]: 15% | Fibrin % cell toxicity ([5]; rat): 1%

Clc1ccc(Cn2c(CN3CCCC3)nc3ccccc32)cc1 [Clemizole Hydrochloride]
LPS % cell toxicity ([1]; rat): 1% | inhibition at 10 µM [2, 14]: 21% | Quadrant (FIG. 5b) ([3]; primary HTS, 10 μM): Q4 | inhibition at 10 µM [4, 15]: -38% | Fibrin % cell toxicity ([5]; rat): 0%

N[C@@H]1C[C@H]1c1ccccc1.N[C@H]1C[C@@H]1c1ccccc1.O=S(=O)(O)O [Tranylcypromine Sulfate]
LPS % cell toxicity [1]: 0% | LPS % inhibition ([2]; 10 µM): 17% | Quadrant (FIG. 5b) [3]: Q4 | Fibrin % inhibition ([4]; 10 µM): 3% | Fibrin % cell toxicity [5]: 0%

CCN(CC)CC#CCOC(=O)C(O)(c1ccccc1)C1CCCCC1 (stereo not drawn) [Oxybutynin]
LPS % cell toxicity ([1]; rat): 1% | inhibition at 10 µM [2, 13]: 0% | Quadrant (FIG. 5b) [3]: Q4 | inhibition at 10 µM [4]: -9% | Fibrin % cell toxicity ([5]; rat): 0%

Cc1cc(C(C)(C)CC(C)(C)C)ccc1OCCOCC[N+](C)(C)Cc1ccccc1.[Cl-] [Methylbenzethonium Chloride]
LPS % cell toxicity [1]: 10% | LPS % inhibition [2, 19]: 108% | Quadrant (FIG. 5b) ([3]; quadrant by fibrin and LPS inhibition, HTS at 10 μM): Q2 | Fibrin % inhibition [4, 21]: 105% | Fibrin % cell toxicity [5]: 17%
